Reference: ChEMBL document CHEMBL5131410, “Design and discovery of C2-fluoroalkyl iminothiazine dioxides as BACE inhibitors” (Bioorg Med Chem Lett, 2022)
Each block holds one compound with its values, some of them ahead of it.

Experiments:
[1] = Lipophilicity, log D of compound at pH 7 by HPLC analysis; format: physicochemical; conditions: buffer
MDR1 (human) = assay: Efflux ratio of apparent permeability across basolateral to apical membrane to apical to basolateral membrane in pig LLC-PK1 cells expressing human MDR1 at 1 uM; format: ADME, cell-based, Sus scrofa
[2] = Drug concentration in rat CSF at 10 mg/kg, po after 3 hrs; format: ADME, organism-based, Cerebrospinal fluid; conditions: read-out: Ct
Beta-secretase 1 [3] = target: T1, Beta-secretase 1 (Homo sapiens, UniProt P56817); assay: Inhibition of BACE1 (unknown origin)
T1 sequence (P56817 whole entry): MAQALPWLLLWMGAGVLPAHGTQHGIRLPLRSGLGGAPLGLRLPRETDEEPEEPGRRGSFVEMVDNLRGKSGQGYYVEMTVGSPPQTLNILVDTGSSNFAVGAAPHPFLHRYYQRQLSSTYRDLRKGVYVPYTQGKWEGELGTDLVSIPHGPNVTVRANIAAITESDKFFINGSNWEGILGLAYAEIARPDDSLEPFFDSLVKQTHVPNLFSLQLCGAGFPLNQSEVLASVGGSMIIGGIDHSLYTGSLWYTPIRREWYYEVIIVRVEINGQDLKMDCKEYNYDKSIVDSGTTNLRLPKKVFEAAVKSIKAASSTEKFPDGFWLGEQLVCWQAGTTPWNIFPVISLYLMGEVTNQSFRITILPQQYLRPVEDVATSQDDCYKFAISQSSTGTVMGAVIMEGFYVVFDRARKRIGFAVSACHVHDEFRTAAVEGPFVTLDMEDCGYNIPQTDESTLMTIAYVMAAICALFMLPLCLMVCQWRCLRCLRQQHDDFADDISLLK

[4] = Dissociation constant, pKa of compound by UV-metric spectrophotometric analysis; format: physicochemical
Beta-secretase 1 [5] = target: T1, Beta-secretase 1; assay: Inhibition of BACE1 (unknown origin) expressed in HEK293 cells expressing human APP with Swedish and London familial AD mutation; format: cell-based
[6] = target: T2, Voltage-gated inwardly rectifying potassium channel KCNH2 (Homo sapiens, UniProt Q12809); assay: Displacement of MK499 from human ERG expressed in HEK membrane by radio ligand binding competition assay; format: toxicity, cell membranes, Cell membrane
T2 sequence (Q12809 whole entry): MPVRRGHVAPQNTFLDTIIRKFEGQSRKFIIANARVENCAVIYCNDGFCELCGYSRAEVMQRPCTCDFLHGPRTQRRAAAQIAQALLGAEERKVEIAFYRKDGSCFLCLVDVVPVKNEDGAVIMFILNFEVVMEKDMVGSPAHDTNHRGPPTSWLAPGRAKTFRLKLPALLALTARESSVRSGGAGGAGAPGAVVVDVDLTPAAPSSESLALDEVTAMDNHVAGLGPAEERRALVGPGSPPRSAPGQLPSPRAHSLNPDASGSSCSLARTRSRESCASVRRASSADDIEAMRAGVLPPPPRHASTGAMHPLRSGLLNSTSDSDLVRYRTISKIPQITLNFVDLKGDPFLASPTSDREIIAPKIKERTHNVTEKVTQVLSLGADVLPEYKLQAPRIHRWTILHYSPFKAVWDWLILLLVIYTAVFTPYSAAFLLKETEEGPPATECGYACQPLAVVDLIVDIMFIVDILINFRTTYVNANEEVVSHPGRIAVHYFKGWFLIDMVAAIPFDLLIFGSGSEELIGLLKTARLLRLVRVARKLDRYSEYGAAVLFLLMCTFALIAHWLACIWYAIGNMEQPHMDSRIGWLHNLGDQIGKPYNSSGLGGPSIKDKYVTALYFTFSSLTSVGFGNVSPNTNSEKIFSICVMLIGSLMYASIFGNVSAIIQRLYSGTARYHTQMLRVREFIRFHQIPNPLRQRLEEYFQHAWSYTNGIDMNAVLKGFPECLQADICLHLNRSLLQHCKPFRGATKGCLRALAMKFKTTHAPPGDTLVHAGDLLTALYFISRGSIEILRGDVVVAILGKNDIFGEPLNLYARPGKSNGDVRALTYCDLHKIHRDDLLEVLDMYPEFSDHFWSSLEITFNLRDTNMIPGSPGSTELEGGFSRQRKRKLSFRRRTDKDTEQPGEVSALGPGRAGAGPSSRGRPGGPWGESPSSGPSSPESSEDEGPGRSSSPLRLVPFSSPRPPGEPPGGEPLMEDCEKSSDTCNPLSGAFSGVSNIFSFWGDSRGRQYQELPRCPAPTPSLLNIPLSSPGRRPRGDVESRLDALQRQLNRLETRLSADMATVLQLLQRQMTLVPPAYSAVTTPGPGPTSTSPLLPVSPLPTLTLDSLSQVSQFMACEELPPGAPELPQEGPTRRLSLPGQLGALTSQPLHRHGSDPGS

[7] = Drug concentration in rat plasma at 10 mg/kg, po after 3 hrs; format: ADME, organism-based
MDR1 (rat) = assay: Efflux ratio of apparent permeability across basolateral to apical membrane to apical to basolateral membrane in pig LLC-PK1 cells expressing rat MDR1 at 1 uM; format: ADME, cell-based, Sus scrofa
Rattus norvegicus [8] = assay: Antialzheimer activity against in rat assessed as decrease in amyloid beta 40 in CSF at 10 mg/kg, po and measured after 3 hrs relative to control; format: functional; parameters: scale not given: the % may be the effect or the level left
[9] = Apparent permeability in pig LLC-PK1 cells; format: ADME, cell-based, Sus scrofa
Rhesus monkey [10] = assay: Antialzheimer activity against in po dosed rhesus monkey assessed as plasma concentration required to 50 % decrease in amyloid beta 40 in CSF measured after 3 hrs; format: functional, organism-based; conditions: Macaca mulatta
[11] = target: Voltage-dependent L-type calcium channel subunit alpha-1C (Homo sapiens, UniProt Q13936); assay: Inhibition of CAV1.2 (unknown origin)
Chain of Voltage-dependent L-type calcium channel subunit alpha-1C (Q13936 whole entry): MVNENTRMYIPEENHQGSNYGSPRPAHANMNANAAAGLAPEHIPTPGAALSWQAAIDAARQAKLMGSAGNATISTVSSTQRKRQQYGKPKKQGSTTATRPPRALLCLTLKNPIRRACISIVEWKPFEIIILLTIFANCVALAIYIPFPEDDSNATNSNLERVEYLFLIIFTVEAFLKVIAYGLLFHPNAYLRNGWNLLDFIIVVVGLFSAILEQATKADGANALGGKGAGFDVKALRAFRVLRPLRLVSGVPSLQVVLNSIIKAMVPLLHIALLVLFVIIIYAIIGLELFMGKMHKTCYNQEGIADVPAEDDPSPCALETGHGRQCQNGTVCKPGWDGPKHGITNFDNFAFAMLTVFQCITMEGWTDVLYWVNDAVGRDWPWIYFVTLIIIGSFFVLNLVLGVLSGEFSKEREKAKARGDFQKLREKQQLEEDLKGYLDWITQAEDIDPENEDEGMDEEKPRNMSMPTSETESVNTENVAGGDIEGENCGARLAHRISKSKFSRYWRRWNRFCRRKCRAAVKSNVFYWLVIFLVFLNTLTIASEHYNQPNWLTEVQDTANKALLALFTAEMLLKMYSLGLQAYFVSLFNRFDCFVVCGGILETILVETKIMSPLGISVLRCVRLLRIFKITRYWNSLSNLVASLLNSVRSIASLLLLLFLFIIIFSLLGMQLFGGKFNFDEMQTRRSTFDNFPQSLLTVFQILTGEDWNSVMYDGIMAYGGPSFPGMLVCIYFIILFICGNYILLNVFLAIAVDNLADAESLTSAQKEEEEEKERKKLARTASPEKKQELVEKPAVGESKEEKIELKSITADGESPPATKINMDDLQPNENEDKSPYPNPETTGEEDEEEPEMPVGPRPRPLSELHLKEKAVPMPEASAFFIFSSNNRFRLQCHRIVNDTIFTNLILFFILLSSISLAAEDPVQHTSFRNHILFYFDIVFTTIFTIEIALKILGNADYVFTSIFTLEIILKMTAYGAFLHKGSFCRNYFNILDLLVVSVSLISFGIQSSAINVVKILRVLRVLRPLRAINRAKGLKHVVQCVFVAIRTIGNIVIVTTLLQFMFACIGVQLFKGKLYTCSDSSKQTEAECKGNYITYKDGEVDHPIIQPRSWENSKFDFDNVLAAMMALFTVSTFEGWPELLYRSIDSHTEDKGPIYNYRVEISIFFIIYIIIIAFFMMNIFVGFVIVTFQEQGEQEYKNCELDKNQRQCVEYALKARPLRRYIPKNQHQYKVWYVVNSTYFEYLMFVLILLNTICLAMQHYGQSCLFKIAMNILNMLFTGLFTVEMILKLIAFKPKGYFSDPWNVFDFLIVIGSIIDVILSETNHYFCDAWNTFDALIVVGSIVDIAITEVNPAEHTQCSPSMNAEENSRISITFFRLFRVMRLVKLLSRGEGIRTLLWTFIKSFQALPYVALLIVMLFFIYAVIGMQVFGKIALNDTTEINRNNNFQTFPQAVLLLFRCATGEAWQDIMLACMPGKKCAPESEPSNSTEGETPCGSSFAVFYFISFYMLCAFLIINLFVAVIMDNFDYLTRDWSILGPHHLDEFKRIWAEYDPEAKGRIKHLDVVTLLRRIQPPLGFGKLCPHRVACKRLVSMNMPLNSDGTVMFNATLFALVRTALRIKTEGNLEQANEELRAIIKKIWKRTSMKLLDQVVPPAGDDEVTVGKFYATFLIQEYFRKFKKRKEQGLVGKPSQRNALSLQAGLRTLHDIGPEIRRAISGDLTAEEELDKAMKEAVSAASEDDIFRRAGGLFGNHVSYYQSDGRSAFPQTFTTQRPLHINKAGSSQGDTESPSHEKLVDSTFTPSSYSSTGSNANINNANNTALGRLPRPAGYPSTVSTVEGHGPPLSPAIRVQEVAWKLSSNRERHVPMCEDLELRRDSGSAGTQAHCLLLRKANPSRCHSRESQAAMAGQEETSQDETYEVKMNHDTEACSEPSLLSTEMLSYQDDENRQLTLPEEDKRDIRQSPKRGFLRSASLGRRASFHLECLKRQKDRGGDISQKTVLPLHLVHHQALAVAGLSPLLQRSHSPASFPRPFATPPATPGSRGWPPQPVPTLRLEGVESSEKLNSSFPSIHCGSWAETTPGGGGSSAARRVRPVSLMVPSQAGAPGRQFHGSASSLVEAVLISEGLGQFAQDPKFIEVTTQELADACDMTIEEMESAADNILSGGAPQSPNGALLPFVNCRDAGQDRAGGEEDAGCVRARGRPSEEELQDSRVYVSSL

Rattus norvegicus [12] = assay: Antialzheimer activity against in po dosed rat assessed as decrease in amyloid beta 40 in CSF measured after 3 hrs; format: functional
Renin = target: T3, Renin (Homo sapiens, UniProt P00797); assay: Inhibition of human renin
T3 sequence (P00797 whole entry): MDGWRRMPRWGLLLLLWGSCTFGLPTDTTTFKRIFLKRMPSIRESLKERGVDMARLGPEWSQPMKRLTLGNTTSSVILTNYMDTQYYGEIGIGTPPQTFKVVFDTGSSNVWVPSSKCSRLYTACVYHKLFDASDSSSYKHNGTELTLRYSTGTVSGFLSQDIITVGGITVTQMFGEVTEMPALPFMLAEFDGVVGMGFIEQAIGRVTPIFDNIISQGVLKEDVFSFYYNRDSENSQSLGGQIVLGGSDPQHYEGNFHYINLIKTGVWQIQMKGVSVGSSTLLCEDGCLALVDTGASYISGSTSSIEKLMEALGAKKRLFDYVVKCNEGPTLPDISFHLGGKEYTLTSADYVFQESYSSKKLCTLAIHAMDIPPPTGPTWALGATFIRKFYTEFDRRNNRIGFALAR

Cathepsin D = Cathepsin D (Homo sapiens, UniProt P07339); assay: Inhibition of human cathepsin D
Chain of Cathepsin D (P07339 65-162 limits assumed): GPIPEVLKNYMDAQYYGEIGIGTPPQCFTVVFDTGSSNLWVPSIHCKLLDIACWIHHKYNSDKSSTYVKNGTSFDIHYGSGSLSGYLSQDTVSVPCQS
Chain of Cathepsin D (P07339 169-412 limits assumed): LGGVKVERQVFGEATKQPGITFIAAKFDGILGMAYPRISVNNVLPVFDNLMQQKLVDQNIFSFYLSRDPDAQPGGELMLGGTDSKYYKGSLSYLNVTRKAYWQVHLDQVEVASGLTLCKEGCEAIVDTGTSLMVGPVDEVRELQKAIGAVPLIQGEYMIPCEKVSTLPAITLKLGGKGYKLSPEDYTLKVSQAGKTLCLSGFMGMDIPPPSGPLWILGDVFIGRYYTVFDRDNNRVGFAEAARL

Rattus norvegicus [13] = assay: Antialzheimer activity against in po dosed rat assessed as plasma concentration required to 50 % decrease in amyloid beta 40 in CSF measured after 3 hrs; format: functional, organism-based
[14] = target: Sodium channel protein type 2 subunit alpha (Homo sapiens, UniProt Q99250); assay: Inhibition of NaV1.2 (unknown origin)
Rhesus monkey [15] = assay: Antialzheimer activity against in po dosed rhesus monkey assessed as decrease in amyloid beta 40 in CSF measured after 3 hrs; format: functional; conditions: Macaca mulatta
Cathepsin E = target: T4, Cathepsin E (Homo sapiens, UniProt P14091); assay: Inhibition of human cathepsin E
T4 sequence (P14091 whole entry): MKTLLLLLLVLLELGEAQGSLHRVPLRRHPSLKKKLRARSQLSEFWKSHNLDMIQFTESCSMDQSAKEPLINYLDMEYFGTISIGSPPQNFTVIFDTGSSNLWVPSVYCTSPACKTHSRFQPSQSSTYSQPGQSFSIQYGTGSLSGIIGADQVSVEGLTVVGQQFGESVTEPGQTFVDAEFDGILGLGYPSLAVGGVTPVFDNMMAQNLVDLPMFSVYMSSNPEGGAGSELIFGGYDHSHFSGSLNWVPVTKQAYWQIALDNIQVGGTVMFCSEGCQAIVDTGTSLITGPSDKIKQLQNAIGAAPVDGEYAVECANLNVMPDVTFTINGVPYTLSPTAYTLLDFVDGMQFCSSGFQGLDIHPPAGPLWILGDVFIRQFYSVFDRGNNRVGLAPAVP

[16] = Free drug concentration in cynomolgus monkey plasma; format: ADME, cell-free, Macaca fascicularis
[17] = target: T2, Voltage-gated inwardly rectifying potassium channel KCNH2; assay: Inhibition of human ERG expressed in HEK cells by voltage clamp assay; format: toxicity, cell-based
[18] = Free drug concentration in human plasma; format: ADME, cell-free
[19] = Ratio of drug level in brain to plasma in rat; format: ADME; conditions: read-out: BPR
[20] = Free drug concentration in rat plasma; format: ADME, cell-free

logD [1]: 2.3 | efflux ratio at 1 µM (MDR1 (human)): 1 | concentration at 3 h [2]: 0.008 µM | Ki (Beta-secretase 1 [3]): 0.003 µM | pKa [4]: 6.19 | IC50 (Beta-secretase 1 [5]): 0.011 µM | concentration at 3 h [7]: 0.154 µM | efflux ratio at 1 µM (MDR1 (rat)): 8.6 | Papp [9]: 286 nm/s
SMILES: C[C@@]1(c2nc(NC(=O)c3ccc(C#N)cn3)ccc2F)CS(=O)(=O)[C@@](C)(C(F)F)C(=N)N1
IC50 [6]: 2.42 µM | Activity (Rattus norvegicus [8]): 80%

logD [1]: 2.5 | efflux ratio at 1 µM (MDR1 (human)): 0.8 | Ki (Beta-secretase 1 [3]): 0.01 µM | pKa [4]: 5.95 | IC50 (Beta-secretase 1 [5]): 0.078 µM | efflux ratio at 1 µM (MDR1 (rat)): 3.7 | Papp [9]: 327 nm/s
SMILES: C[C@@]1(C(F)F)C(=N)N[C@](C)(c2nc(NC(=O)c3ccc(C#N)cn3)ccc2F)CS1(=O)=O
IC50 [6]: 24.2 µM

EC50 (Rhesus monkey [10]): 0.02 µM | Ki (Beta-secretase 1 [3]): 0.001 µM | Ki (Renin): > 19.1 µM | Ki (Cathepsin D): 5.88 µM | IC50 (Beta-secretase 1 [5]): 0.003 µM | EC50 (Rattus norvegicus [13]): 0.13 µM | IC50 [14]: > 30 µM | Ki (Cathepsin E): > 30.5 µM
SMILES: Cc1cc(C#N)cnc1C(=O)Nc1ccc(F)c([C@]2(C)CS(=O)(=O)[C@@](C)(C(F)F)C(=N)N2)n1
IC50 [11]: 7.06 µM | ED50 (Rattus norvegicus [12]): 3 mg/kg | ED50 (Rhesus monkey [15]): < 3 mg/kg | Activity (Rattus norvegicus [8]): 91%

Ki (Beta-secretase 1 [3]): 0.003 µM | IC50 (Beta-secretase 1 [5]): 0.011 µM
SMILES: Cc1cc(C#N)cnc1C(=O)Nc1ccc(F)c([C@]2(C)CS(=O)(=O)[C@](C)(C(F)F)C(=N)N2)n1
Activity (Rattus norvegicus [8]): 80%

EC50 (Rhesus monkey [10]): 0.023 µM | EC50 (Rattus norvegicus [13]): 0.015 µM
SMILES: COc1cnc(C(=O)Nc2ccc(F)c([C@]3(C)CS(=O)(=O)C(C)(C)C(N)=N3)c2)cn1
ED50 (Rattus norvegicus [12]): 1.2 mg/kg | ED50 (Rhesus monkey [15]): 0.3 mg/kg

SMILES: CC1(C)C(=N)N[C@](C)(c2nc(NC(=O)c3ccc(C#N)cn3)ccc2F)CS1(=O)=O
Activity (Rattus norvegicus [8]): 88%

Ki (Beta-secretase 1 [3]): 0.012 µM | IC50 (Beta-secretase 1 [5]): 0.171 µM
SMILES: COc1cnc(C(=O)Nc2ccc(F)c([C@]3(C)CS(=O)(=O)[C@](C)(C(F)F)C(=N)N3)c2)cn1

Ki (Beta-secretase 1 [3]): 0.005 µM | IC50 (Beta-secretase 1 [5]): 0.012 µM
SMILES: COc1cnc(C(=O)Nc2ccc(F)c([C@]3(C)CS(=O)(=O)[C@@](C)(CF)C(=N)N3)c2)cn1

Ki (Beta-secretase 1 [3]): 0.001 µM | IC50 (Beta-secretase 1 [5]): 0.001 µM
SMILES: Cc1cc(C#N)cnc1C(=O)Nc1ccc(F)c([C@]2(C)CS(=O)(=O)[C@@](C)(CF)C(=N)N2)n1
Activity (Rattus norvegicus [8]): 92%

Ki (Beta-secretase 1 [3]): 0.004 µM | IC50 (Beta-secretase 1 [5]): 0.014 µM
SMILES: COc1cnc(C(=O)Nc2ccc(F)c([C@]3(C)CS(=O)(=O)[C@](C)(CF)C(=N)N3)c2)cn1

Ki (Beta-secretase 1 [3]): 0.003 µM | IC50 (Beta-secretase 1 [5]): 0.03 µM
SMILES: COc1cnc(C(=O)Nc2ccc(F)c([C@]3(C)CS(=O)(=O)[C@@](C)(C(F)F)C(=N)N3)c2)cn1

Ki (Beta-secretase 1 [3]): 0.002 µM | IC50 (Beta-secretase 1 [5]): 0.003 µM
SMILES: C[C@]1(CF)C(=N)N[C@](C)(c2nc(NC(=O)c3ccc(C#N)cn3)ccc2F)CS1(=O)=O

Ki (Beta-secretase 1 [3]): 0.002 µM | IC50 (Beta-secretase 1 [5]): 0.002 µM
SMILES: Cc1cc(C#N)cnc1C(=O)Nc1ccc(F)c([C@]2(C)CS(=O)(=O)[C@](C)(CF)C(=N)N2)n1
Activity (Rattus norvegicus [8]): 68%

Ki (Beta-secretase 1 [3]): 0.003 µM | IC50 (Beta-secretase 1 [5]): 0.007 µM
SMILES: C[C@@]1(c2nc(NC(=O)c3ccc(C#N)cn3)ccc2F)CS(=O)(=O)[C@](C)(CF)C(=N)N1

EC50 (Rhesus monkey [10]): 0.041 µM | fraction unbound [16]: 0.18 | pKa [4]: 7.5 | EC50 (Rattus norvegicus [13]): 0.11 µM | fraction unbound [18]: 0.24 | Kp [19]: 0.23 | fraction unbound [20]: 0.21 | Papp [9]: 230 nm/s
SMILES: CN1C(N)=N[C@](C)(c2cc(NC(=O)c3ccc(F)cn3)ccc2F)CS1(=O)=O [VERUBECESTAT]
ED50 (Rattus norvegicus [12]): 0.69 mg/kg | IC50 [17]: 2.2 µM | ED50 (Rhesus monkey [15]): < 3 mg/kg
